{
  "source": "patent US20190071490A1",
  "about": "“Preventing Post-Ictal Headaches” (Beth Israel Deaconess Medical Center, Inc., priority 2017, published 2019)",
  "tested_on": "skin blood flow after saphenous nerve stimulation (CGRP release)",
  "assay": "Skin vasodilatation induced by stimulation of rat saphenous nerve",
  "assay_type": "in vivo",
  "conditions": "400 nmol/kg i.v., 3-5 minutes before stimulation, vs control",
  "method": "To test antagonist activity of anti-CGRP antibodies, effect of the antibodies on skin vasodilatation by stimulation of rat saphenous nerve was tested using a rat model described previously. Escott et al., Br. J. Pharmacol. 110:772-776, 1993. In this rat model, electrical stimulation of saphenous nerve induces release of CGRP from nerve endings, resulting in an increase in skin blood flow. Blood flow in the foot skin of male Sprague Dawley rats (170-300 g, from Charles River Hollister) was measured after saphenous nerve stimulation. Rats were maintained under anesthesia with 2% isoflurane. Bretylium tosylate (30 mg/kg, administered i.v.) was given at the beginning of the experiment to minimize vasoconstriction due to the concomitant stimulation of sympathetic fibers of the saphenous nerve. […]\nFor experiments shown in FIGS. 2A and 2B, antibody 4901 (25 mg/kg), antibody 7D11 (25 mg/kg), or vehicle control (PBS with 0.01% Tween 20) was administered intraperitoneally (IP) 72 hours before the electrical pulse stimulation. […] Skin blood flow, measured as blood cell flux, was monitored with a laser Doppler flow meter. […]\nFor experiments shown in FIGS. 4A and 4B, saphenous nerve was exposed surgically before antibody administration. […] Skin blood flow, measured as blood cell flux, was monitored with a laser Doppler flow meter. […]",
  "data": [
    {"substance": "CGRP 8-37: Positive control compound CGRP 8-37 (vasodilatation antagonist)", "values": [
      {"measurement": "blood flow increase stimulated by electronic pulses on saphenous nerve (AUC of blood cell flux)", "result": "inhibited"}
    ]}
  ]
}
